Assay results from the kinase profiling compilation of Christmann-Franck et al. (2016).

How the values were obtained:
Assay in all cases: radiometric filter-binding kinase assay, Kinaseprofiler
FES (human) = FES (human) (UniProt P07332)
FLT4 (human) = FLT4 (human) (UniProt P35916)
FGFR3 (human) = FGFR3 (human) (UniProt P22607)
MERTK (human) = MERTK (human) (UniProt Q12866)
MERTK (human), sequence (Q12866 whole entry, looked up): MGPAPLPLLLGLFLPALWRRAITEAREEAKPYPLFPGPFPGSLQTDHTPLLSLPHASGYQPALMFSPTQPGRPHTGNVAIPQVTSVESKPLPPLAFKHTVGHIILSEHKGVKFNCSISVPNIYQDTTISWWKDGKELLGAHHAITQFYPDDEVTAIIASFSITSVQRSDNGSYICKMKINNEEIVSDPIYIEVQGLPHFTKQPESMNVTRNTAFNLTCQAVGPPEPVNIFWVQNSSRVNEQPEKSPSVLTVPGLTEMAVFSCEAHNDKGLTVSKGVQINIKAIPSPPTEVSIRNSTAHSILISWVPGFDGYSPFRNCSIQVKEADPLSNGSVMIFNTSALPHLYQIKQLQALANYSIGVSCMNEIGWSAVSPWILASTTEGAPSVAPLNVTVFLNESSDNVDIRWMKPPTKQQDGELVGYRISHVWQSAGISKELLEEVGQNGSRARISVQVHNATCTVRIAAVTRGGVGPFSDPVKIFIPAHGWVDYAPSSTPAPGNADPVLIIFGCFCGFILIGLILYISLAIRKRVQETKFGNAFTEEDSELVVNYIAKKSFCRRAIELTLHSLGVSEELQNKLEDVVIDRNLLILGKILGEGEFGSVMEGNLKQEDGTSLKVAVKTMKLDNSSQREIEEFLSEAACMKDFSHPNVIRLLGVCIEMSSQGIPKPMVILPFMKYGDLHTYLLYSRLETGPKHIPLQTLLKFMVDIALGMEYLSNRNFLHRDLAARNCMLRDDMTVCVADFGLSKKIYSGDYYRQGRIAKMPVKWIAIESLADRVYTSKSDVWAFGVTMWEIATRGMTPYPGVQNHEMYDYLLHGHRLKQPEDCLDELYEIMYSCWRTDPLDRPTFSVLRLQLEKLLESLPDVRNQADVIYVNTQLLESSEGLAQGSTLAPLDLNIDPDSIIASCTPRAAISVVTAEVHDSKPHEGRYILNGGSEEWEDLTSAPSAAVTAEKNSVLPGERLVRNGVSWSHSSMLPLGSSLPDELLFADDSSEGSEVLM

FES (human), sequence (P07332 whole entry, looked up): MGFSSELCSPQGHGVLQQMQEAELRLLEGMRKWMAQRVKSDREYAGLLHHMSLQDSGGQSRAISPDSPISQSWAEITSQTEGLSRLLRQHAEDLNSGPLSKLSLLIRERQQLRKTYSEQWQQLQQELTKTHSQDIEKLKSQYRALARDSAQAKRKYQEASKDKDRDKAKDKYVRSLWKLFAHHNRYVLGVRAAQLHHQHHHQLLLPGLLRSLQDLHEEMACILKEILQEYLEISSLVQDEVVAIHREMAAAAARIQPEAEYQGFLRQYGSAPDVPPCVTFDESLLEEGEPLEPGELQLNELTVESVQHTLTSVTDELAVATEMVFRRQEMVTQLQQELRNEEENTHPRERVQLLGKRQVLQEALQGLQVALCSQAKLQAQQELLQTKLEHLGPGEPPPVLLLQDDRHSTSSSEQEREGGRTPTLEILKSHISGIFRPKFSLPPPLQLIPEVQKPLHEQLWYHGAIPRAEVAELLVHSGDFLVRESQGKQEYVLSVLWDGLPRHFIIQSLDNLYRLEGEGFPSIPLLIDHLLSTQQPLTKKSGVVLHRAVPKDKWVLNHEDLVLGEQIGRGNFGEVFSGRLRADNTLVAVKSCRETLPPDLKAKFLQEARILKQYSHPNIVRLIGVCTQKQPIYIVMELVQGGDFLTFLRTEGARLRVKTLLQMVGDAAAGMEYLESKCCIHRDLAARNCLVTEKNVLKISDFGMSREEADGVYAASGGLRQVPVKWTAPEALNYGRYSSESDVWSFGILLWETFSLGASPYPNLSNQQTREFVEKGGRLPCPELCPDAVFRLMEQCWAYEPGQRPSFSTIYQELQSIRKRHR
FGFR3 (human), sequence (P22607 whole entry, looked up): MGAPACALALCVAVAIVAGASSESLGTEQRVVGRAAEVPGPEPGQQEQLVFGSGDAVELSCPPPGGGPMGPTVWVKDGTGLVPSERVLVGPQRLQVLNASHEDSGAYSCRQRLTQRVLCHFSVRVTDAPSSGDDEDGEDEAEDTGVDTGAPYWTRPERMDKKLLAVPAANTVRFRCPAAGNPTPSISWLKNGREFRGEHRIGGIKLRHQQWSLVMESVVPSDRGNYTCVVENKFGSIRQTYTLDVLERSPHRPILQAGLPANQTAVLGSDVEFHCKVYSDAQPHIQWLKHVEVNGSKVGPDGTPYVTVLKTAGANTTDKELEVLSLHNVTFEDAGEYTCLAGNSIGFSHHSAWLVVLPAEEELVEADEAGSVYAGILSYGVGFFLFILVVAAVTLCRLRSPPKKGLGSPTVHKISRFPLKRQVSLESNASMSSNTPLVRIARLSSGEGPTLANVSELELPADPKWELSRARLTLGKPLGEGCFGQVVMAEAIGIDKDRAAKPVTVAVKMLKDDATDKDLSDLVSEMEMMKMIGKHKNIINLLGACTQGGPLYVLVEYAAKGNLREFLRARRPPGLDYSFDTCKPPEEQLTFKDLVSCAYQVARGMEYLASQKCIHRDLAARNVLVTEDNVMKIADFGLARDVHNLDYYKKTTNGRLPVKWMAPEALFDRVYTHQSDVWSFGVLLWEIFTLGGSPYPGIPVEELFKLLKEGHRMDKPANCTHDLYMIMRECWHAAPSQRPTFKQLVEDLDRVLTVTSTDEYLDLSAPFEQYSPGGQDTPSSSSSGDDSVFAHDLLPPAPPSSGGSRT
FLT4 (human), sequence (P35916 whole entry, looked up): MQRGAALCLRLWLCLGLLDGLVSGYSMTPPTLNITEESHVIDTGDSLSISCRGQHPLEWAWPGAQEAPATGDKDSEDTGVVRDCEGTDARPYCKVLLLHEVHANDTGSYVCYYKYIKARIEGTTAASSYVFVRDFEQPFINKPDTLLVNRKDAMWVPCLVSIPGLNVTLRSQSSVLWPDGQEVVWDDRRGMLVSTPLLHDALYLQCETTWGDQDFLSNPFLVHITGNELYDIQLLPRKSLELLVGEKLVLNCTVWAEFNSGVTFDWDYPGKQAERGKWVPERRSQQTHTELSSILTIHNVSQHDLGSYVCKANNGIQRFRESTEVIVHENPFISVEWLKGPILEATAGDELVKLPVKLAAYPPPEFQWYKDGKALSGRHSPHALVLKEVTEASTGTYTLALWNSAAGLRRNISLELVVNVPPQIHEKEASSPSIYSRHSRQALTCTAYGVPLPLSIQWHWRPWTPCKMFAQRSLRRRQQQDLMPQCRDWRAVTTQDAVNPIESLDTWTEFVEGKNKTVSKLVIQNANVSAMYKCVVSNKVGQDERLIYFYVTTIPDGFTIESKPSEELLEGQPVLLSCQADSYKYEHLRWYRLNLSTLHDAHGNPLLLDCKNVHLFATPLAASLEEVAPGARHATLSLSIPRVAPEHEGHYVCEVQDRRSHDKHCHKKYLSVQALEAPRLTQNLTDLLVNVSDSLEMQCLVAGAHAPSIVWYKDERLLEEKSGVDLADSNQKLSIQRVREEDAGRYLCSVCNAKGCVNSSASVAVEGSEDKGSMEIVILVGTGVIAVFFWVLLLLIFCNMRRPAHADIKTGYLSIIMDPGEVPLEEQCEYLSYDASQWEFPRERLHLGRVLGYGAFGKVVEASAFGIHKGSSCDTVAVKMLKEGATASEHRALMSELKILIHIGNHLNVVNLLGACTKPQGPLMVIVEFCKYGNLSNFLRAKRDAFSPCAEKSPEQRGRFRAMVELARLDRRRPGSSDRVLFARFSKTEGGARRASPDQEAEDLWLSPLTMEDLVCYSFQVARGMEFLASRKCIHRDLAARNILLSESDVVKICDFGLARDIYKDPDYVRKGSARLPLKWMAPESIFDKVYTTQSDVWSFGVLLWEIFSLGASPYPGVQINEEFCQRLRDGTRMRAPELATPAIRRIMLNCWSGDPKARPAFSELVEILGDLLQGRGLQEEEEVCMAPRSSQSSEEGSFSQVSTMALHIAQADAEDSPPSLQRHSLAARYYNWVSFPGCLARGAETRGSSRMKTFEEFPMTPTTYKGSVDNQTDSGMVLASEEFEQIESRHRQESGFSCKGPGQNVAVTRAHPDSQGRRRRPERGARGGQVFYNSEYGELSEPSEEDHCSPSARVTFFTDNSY

## Cn1cc(-c2cnc3ccc4ccc(CS(=O)(=O)NCc5ccccn5)cc4c(=O)c3c2)cn1
FES (human)
  IC50: > 10000 nM
FLT4 (human)
  IC50: 920 nM
FGFR3 (human)
  IC50: 1000 nM
MERTK (human)
  IC50: 880 nM
